We go through six compounds from patent publication US11464770B2, “Anticancer pharmaceutical composition” (NATIONAL CANCER CENTER, priority 2016, dated 2022).

One test concerns renal cancer cell lines. The test can be described thus: Cell based assay, cell viability (CellTiter-Glo), renal cancer cell lines. The conditions noted are these: Homo sapiens; ACHN cells. The method, boiled down: (§1)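 Seed cells after trypsin-EDTA treatment, hold 24 h at constant temperature, then add compound to a final 0 to 2 μM. Culture 72 h more and measure viability via ATP detection.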

The test system of a further test is neuroblastoma cell lines. Description: Cell based assay, cell viability (CellTiter-Glo), neuroblastoma cell lines. The conditions noted are these: Homo sapiens; SH-SY5Y cell line. The method, boiled down:
as §1

Test [1] has as its system pancreatic cancer cell lines (e.g. MIA PaCa-2). The test can be described thus: Cell based assay, cell viability (CellTiter-Glo), pancreatic cancer cell lines. The conditions noted are these: Homo sapiens. The gist of the method: as §1
The mark [2] stands for this setting: pancreatic cancer cell line AsPC-1, 72 hours, read-out: IC50, AsPC-1.
Where [3] appears, read: pancreatic cancer cell line BxPC-3, 72 hours, read-out: IC50, BxPC-3.
Setting [4] is: pancreatic cancer cell line CFPAC-1, 72 hours, read-out: IC50, CFPAC-1.
Where [5] appears, read: pancreatic cancer cell line Capan-1, 72 hours, read-out: IC50, Capan-1.
[6] abbreviates: pancreatic cancer cell line Capan-2, 72 hours, read-out: IC50, Capan-2.
Where [7] appears, read: pancreatic cancer cell line MIA PaCa-2, 72 hours, read-out: IC50, MIA PaCa-2.
The mark [8] stands for this setting: pancreatic cancer cell line PANC-1, 72 hours, read-out: IC50, PANC-1.

Each structure is given as a SMILES string. Read-outs that look alike come from different tables or passages of the source. Where only a bound is given, the exact number is not on record here.

As for `CC(=O)c1c([S+]([O-])Cc2ccc(Cl)cc2)[nH]c2c(Br)ccc(Cl)c2c1=O` (stereo not drawn) [Compound 11, 3-acetyl-8-bromo-5-chloro-2-((4-chlorobenzyl)sulfinyl)quinolin-4(1H)-one], the IC50 in the test with renal cancer cell lines is over 2 µM; in the test on neuroblastoma cell lines, over 2 µM; in test [1] (setting [2]), over 2 µM; in test [1] (setting [3]) it was over 2 µM; in test [1] (setting [4]), over 10 µM; in test [1] (setting [5]), over 2 µM. The concentration for half-maximal inhibition (IC50) in test [1] (setting [6]), in test [1] (setting [7]) and in test [1] (setting [8]) was over 2 µM each time.
For `CC(=O)c1c(S)[nH]c2c(Br)ccc(Cl)c2c1=O` [Compound 62, 3-acetyl-8-bromo-5-chloro-2-mercaptoquinolin-4(1H)-one], the 50% inhibitory concentration (IC50) in the test on renal cancer cell lines was over 2 µM; in the test on neuroblastoma cell lines it was over 2 µM; in test [1] (setting [2]), over 2 µM; in test [1] (setting [3]), over 2 µM; in test [1] (setting [4]), over 10 µM; in test [1] (setting [5]), over 2 µM. The half-inhibitory concentration (IC50) in test [1] (setting [6]), in test [1] (setting [7]) and in test [1] (setting [8]) was over 2 µM in each case.
With `COc1cccc2[nH]c([S+]([O-])Cc3ccc(S(F)(F)(F)(F)F)cc3)c(C(C)=O)c(=O)c12` (stereo not drawn) [Compound 93, 3-acetyl-5-methoxy-2-((4-(pentafluoro--sulfanyl)benzyl)sulfinyl)quinolin-4(1H)-one], the IC50 with renal cancer cell lines was over 2 µM; with neuroblastoma cell lines, over 2 µM; in test [1] (setting [2]), over 2 µM; in test [1] (setting [3]) it was over 2 µM; in test [1] (setting [4]), over 10 µM; in test [1] (setting [5]) it was over 2 µM. The IC50 in test [1] (setting [6]), in test [1] (setting [7]) and in test [1] (setting [8]) was over 2 µM each time.
In the case of `CC(=O)c1c(S(C)(=O)=O)n(C(=O)c2ccc(Br)cc2)c2c(Br)ccc(Cl)c2c1=O` [Compound 21, 3-acetyl-8-bromo-1-(4-bromobenzoyl)-5-chloro-2-(methylsulfonyl)quinolin-4(1H)-one], the half-maximal inhibitory concentration (IC50) in the test on renal cancer cell lines was over 2 µM; in the test with neuroblastoma cell lines, over 2 µM; in test [1] (setting [2]) it was over 2 µM; in test [1] (setting [3]) it was over 2 µM; in test [1] (setting [4]) it was over 10 µM; in test [1] (setting [5]), over 2 µM. Moreover, the IC50 in test [1] (setting [6]), in test [1] (setting [7]) and in test [1] (setting [8]) was over 2 µM throughout.
Turning to `CC(=O)c1c(SCC#N)[nH]c2c(Br)ccc(Cl)c2c1=O` [Compound 66, 2-((3-acetyl-8-bromo-5-chloro-4-oxo-1,4-dihydroquinolin-2-yl)thio)acetonitrile], the 50% inhibitory concentration (IC50) in the test on renal cancer cell lines was over 2 µM; in the test with neuroblastoma cell lines, over 2 µM; in test [1] (setting [2]), over 2 µM; in test [1] (setting [3]), over 2 µM; in test [1] (setting [4]), over 10 µM; in test [1] (setting [5]), over 2 µM. The 50% inhibitory concentration (IC50) in test [1] (setting [6]), in test [1] (setting [7]) and in test [1] (setting [8]) was over 2 µM each time.
For the compound `CC(=O)c1c(Sc2ccc(Br)cc2)[nH]c2c(Br)ccc(Cl)c2c1=O` [Compound 16, 3-acetyl-8-bromo-2-((4-bromophenyl)thio)-5-chloroquinolin-4(1H)-one], the half-inhibitory concentration (IC50) with renal cancer cell lines was over 2 µM; with neuroblastoma cell lines, over 2 µM; in test [1] (setting [2]), over 2 µM; in test [1] (setting [3]), over 2 µM; in test [1] (setting [4]), over 10 µM; in test [1] (setting [5]), over 2 µM. The IC50 in test [1] (setting [6]), in test [1] (setting [7]) and in test [1] (setting [8]) was over 2 µM in each case.
